Source: US20160007541A1, “Increasing Harvest (Yield) of Crop Plants Utilizing Thermodynamic Laws on a Whole Plant Basis to Detect Optimal Periods for Exothermic Energy Versus Endothermic Energy Needs” (Stoller Enterprises, Inc., priority 2014, published 2016)

System: tomato plants
Experiment: Tomato yield, Brix and taste after cobalt via drip irrigation (Table 4)
Type: in vivo
Details: base fertility plus cobalt @ 1 pt/acre over 5 weeks

## [Co] [cobalt]
Base 2
  Taste test 14 scientific personnel: 2.8
Base 4.8
  % Brix (sugars): 5.5%
Base 29.6
  Yield (No. of tons per acre): 33.9 tons per acre
Base 244
  Yield (number of tomato fruits per acre × 1,000): 288 fruits per acre × 1,000
